For orientation: IC50 means the concentration that inhibits the measured activity by half.

Series [1] has as its system HEK293. Nature of the series: Cytotoxic activity in HEK293 cells assessed as reduction in cell viability incubated for 72 hrs by MTT assay. The class given is cell-based. The note with it: Homo sapiens, HEK293, 72 h. For orientation: Tetrazolium dyes change colour on reduction, which living cells bring about.
Series [2] has as its system COLO357. The series can be described thus: Cytotoxic activity in human Colo-357 cells assessed as reduction in cell viability incubated for 72 hrs by MTT assay. The class given is functional, cell-based. The settings on record: COLO357, 72 h.
Series [3] relates to MIA PaCa-2. Nature of the series: Cytotoxic activity in human MIAPaCa2 cells assessed as reduction in cell viability incubated for 72 hrs by MTT assay. The note with it: MIA PaCa-2, 72 h. The format is functional, cell-based.
Series [4] relates to COLO357. Nature of the series: Induction of apoptosis in human Colo-357 cells at 5 uM incubated for 72 hrs by propidium iodide staining based flow cytometry (reference value: 12.4%). The format is functional. For orientation: A flow cytometer gives signals particle by particle.
For series [5], the system named is COLO357. Nature of the series: Induction of cell cycle arrest in human Colo-357 cells assessed as accumulation at G phase at 5 uM incubated for 72 hrs by propidium iodide staining based flow cytometry (reference value: 56.6%). The format is functional.
For series [6], the system named is COLO357. The series can be described thus: Induction of cell cycle arrest in human Colo-357 cells assessed as accumulation at G2/M phase at 5 uM incubated for 72 hrs by propidium iodide staining based flow cytometry (reference value: 31%). The format is functional.
Series [7] has as its system COLO357. Nature of the series: Induction of cell cycle arrest in human Colo-357 cells assessed as accumulation at […] phase at 5 uM incubated for 72 hrs by propidium iodide staining based flow cytometry (reference value: 1.8%). The format is functional.
The species named for series [8] is Homo sapiens. The series can be described thus: Inhibition of beta tubulin assembly in human Colo-357 cells at 5 uM incubated for 24 hrs by anti-tubulin antibody based confocal microscopy. The format is cell-based.
Series [9] is filed under the species Homo sapiens. The series can be described thus: Inhibition of beta tubulin assembly in human Colo-357 cells at 5 uM incubated for 3 hrs by anti-tubulin antibody based confocal microscopy. The format is cell-based.
Series [10] concerns COLO357. The series can be described thus: Growth inhibition of human Colo-357 cells incubated for 72 hrs by MTT assay. The class given is functional.
In series [11] the test system is HT-29. The series can be described thus: Cytotoxic activity in human HT-29 cells assessed as reduction in cell viability at 0.1 to 100000 nM incubated for 24 hrs by MTT assay. The class given is functional, cell-based.
The test system of series [12] is PANC-1. The series can be described thus: Cytotoxic activity in human PANC1 cells assessed as reduction in cell viability at 0.1 to 100000 nM incubated for 24 hrs by MTT assay. The class given is functional, cell-based.
The test system of series [13] is HEK293. Nature of the series: Cytotoxic activity in HEK293 cells assessed as reduction in cell viability at 0.1 to 100000 nM incubated for 24 hrs by MTT assay. The class given is cell-based. The settings on record: human, hek293, 24 h, 100 µM.
Series [14] in a line: Gastrointestinal toxicity in human HT-29 cells assessed as effect on EPR at 5 uM incubated for 3 hrs by flow cytometry. The class given is cell-based. The settings on record: ht-29, 3 h.
The nature of series [15]: Gastrointestinal toxicity in human HT-29 cells assessed as effect on golgi apparatus at 5 uM incubated for 3 hrs by flow cytometry. The note with it: ht-29, 3 h. The class given is cell-based.
Series [16] can be described thus: Gastrointestinal toxicity in human HT-29 cells assessed as effect on endosomes at 5 uM incubated for 3 hrs by flow cytometry. The format is cell-based. The note with it: ht-29, 3 h.
The nature of series [17]: Gastrointestinal toxicity in human HT-29 cells assessed as effect on membrane integrity at 5 uM incubated for 3 hrs by flow cytometry. The class given is cell-based. The settings on record: ht-29, 3 h.
Series [18] is described as follows: Gastrointestinal toxicity in human HT-29 cells assessed as mitochondrial stimulation at 5 uM incubated for 3 hrs by flow cytometry. The format is cell-based. The note with it: ht-29, 3 h.
Series [19] in a line: Gastrointestinal toxicity in human HT-29 cells assessed as lysosomal membrane potential at 5 uM incubated for 3 hrs by flow cytometry. The format is cell-based. The settings on record: ht-29, 3 h.
Series [20] deals with COLO357. The series can be described thus: Induction of mitochondrial changes in human Colo-357 cells at 5 uM incubated for 3 hrs by flow cytometry. The class given is functional, cell-based.
A short description of series [21]: Gastrointestinal toxicity in human HT-29 cells assessed as increase in mitochondrial membrane potential at 5 uM incubated for 3 hrs by flow cytometry. The format is cell-based. The settings on record: ht-29, 3 h.
Series [22] can be described thus: Gastrointestinal toxicity in human HT-29 cells assessed as increase in mitochondrial number at 5 uM incubated for 3 hrs by flow cytometry. The format is cell-based. The note with it: ht-29, 3 h.
Series [23] can be described thus: Gastrointestinal toxicity in human HT-29 cells assessed as relocation from perinuclear position to cytoplasm at 5 uM incubated for 3 hrs by flow cytometry. The class given is cell-based. The settings on record: ht-29, 3 h.

Molecules are shown by their SMILES. Calls of active or inactive are those of the source. No cut-off for these calls is given here. Where only a bound is given, the exact number is not on record here.

Take `COc1c(Br)c2c(c(OC)c1OC)-c1cc3cc(CO)n(C)c3cc1[C@@H](NC(C)=O)CC2`: the IC50 was 6.4 nM in series [1], 0.3 nM in series [2] (read-out: IC50) and below 0.1 nM in [3] (read-out: IC50). Moreover, the Activity in [4] was 25%; in series [5], 12%; in series [6], 63%; in series [7], 0.2%; in series [13], “Non-Toxic”; in series [14] it was “Non-Toxic”. In addition, the Activity result in series [15], in series [16], in [17], in series [18] and in [19] was “Non-Toxic” throughout. Moreover, the inhibition result in [8] and in [9] was “Active” throughout. The “growth inhibition (GI)” value in [10] is given as 60 - 80%. Moreover, the outcome in series [11] and in series [20] was Active. In addition, in [12], the outcome was inactive.
For the molecule `COc1c(Br)c2c(c(OC)c1OC)-c1cc3cc(CO)[nH]c3cc1[C@@H](NC(C)=O)CC2`, the IC50 in series [1] was found to be 160 nM; in [2] (read-out: IC50), 3.5 nM; in series [3] (read-out: IC50) it was 10 nM. For the same molecule, the Activity turned out to be 23% in series [4], 16% in [5], 61% in [6] and 0.3% in series [7]. The inhibition result in series [8] was “Active”. Besides, in [10], the “growth inhibition (GI)” value is on record as 60 - 80%.
In the case of `COc1cc2c(c(OC)c1OC)-c1ccc(OC)c(=O)cc1[C@@H](NC(C)=O)CC2` [COLCHICINE], the IC50 was 32 nM in [1], 1.3 nM in [2] and 1.3 nM in [3]. In addition, the Activity in series [4] is 12.4%; in series [5], 12.6%; in series [6], 75%; in series [7] it was 0.2%; in series [14], “Non-Toxic”; in series [15], “Non-Toxic”. In addition, the Activity result is “Non-Toxic” in [16]; “Non-Toxic” in [17]; “Toxic” in [21]; “Toxic” in [22]; “Toxic” in series [23]; “Toxic” in series [19]. For the same molecule, the inhibition entry in series [8] is “Active”. Besides, the “growth inhibition (GI)” value in series [10] is 60 - 80%.

These data come from ChEMBL document CHEMBL4130488, “Synthesis and biological evaluation of novel non-racemic indole-containing allocolchicinoids” (Eur J Med Chem, 2017).
